One data set deals with HIV-1IIIB. Nature of the data set: Syncytia inhibition assay (HIV-1IIIB infected C8166 cells). Format: cell-based. As to conditions: for TI (in vitro therapeutic index, CC50 value/EC50 value): CC50 in C8166 cells / EC50 syncytia inhibition; for EC50: HIV-1IIIB infected C8166 cells, 72 h, means of two separate experiments, read-out: EC50 (50% effective concentration, reduces syncytia formation by 50%). How it is done:
Target compounds 6–16 were evaluated for their inhibitory activity against HIV-1 replication in acutely infected C8166 cells in vitro according to the previously described method, and AZT was used as a positive control. The assay results of the target compounds are presented in Table 1 and Table 2, expressed as CC50, EC50 and therapeutic index (TI).
The syncytia inhibition assay was applied by counting syncytia which were formed by HIV-1IIIB infected C8166 cells. Briefly, HIV-1IIIB supernatant and C8166 cells were seeded in a 96-well plate with different concentration of compounds. The plate was incubated in a 37 °C, 5% CO2 incubator for 72 h. Syncytia were counting under an inverted microscope and 50% effective concentration (EC50) was calculated. Therapeutic index (TI) was calculated by the ratio of CC50/EC50.

The test system of a further data set is C8166 cells. Nature of the data set: Cytotoxicity assay (MTT). The format is cell-based. As for the experimental part: (§1) The cytotoxicty assay was performed by 3-(4,5-dimethylthiazol-2-yl)-2,5-diphenyl tetrazoliumbromide (MTT) method. Briefly, 100 μL 4 × 10^4 C8166 cells were seeded each well with 100 μL of different concentrations of compounds in a 96-well plate. The plate was incubated 72 h at 37 °C, 5% CO2 incubator. MTT (20 μL, 5 mg/mL) was added to each well and the plate was incubated at 37 °C for 4 h. Supernatant (100 μL) was discarded and 20% SDS-50% DMF (100 μL) was added. The plates were read at 570/630 nm by a Bio-Tek Elx 800 reader (Bio-Tek Instruments, Inc., Winooski, VT, USA). The 50% cytotoxic concentration (CC50) was calculated.

The test system of another data set is HIV. On the set-up: method as in earlier work. As to conditions: Figure 1; cited from earlier work.
The nature of another data set: Cytotoxicity assay (MTT). The format is cell-based. The following applies: human; C8166 cells, MTT, 72 h; means of two separate experiments; read-out: CC50 (50% cytotoxic concentration). As for the experimental part:
as §1

Where [1] appears, read: Human immunodeficiency virus 1, C8166, 72 h.

Where two headings read alike, the source gives them in different places. Where only a bound is given, the exact number is not on record here.

The source of these data is PMC6274355, “Synthesis and Anti-HIV-1 Activity Evaluation for Novel 3a,6a-Dihydro-1H-pyrrolo[3,4-c]pyrazole-4,6-dione Derivatives” (Molecules, 2016).

Regarding “3-(2,3-Dihydroxyphenyl)-1-(4-fluorophenyl)-5-[2-(4-fluorophenyl)ethyl]-3a,6a-dihydro-1H-pyrrolo[3,4-c]pyrazole-4,6-dione [10b]”, in the data set with HIV-1IIIB, the “TI (in vitro therapeutic index, CC50 value/EC50 value)” value came out at 39.85 and the EC50 is 4.73 µM. Also, the CC50 with C8166 cells is 0.189 mM.
In the case of `CCOC(=O)c1ncc(O)c2c1C(=O)N(CCc1ccc(F)cc1)C2=O` [compound 5], the EC50 with HIV was 1650 nM.
With `O=C1C2C(c3ccccc3O)=NN(c3ccc(F)cc3)C2C(=O)N1CCc1ccc(F)cc1` (stereo not shown) [compound 8, 1-(4-Fluorophenyl)-5-[2-(4-fluorophenyl)ethyl]-3-(2-hydroxyphenyl)-3a,6a-dihydro-1H-pyrrolo[3,4-c]pyrazole-4,6-dione], the “TI (in vitro therapeutic index, CC50 value/EC50 value)” value in the data set on HIV-1IIIB is given as over 44.25. Besides, in the data set on HIV-1IIIB (setting [1]), the EC50 turned out to be 10.1 µM. The CC50 at 72 h in the data set “Cytotoxicity assay (MTT)” is over 447 µM.
Consider `COc1cccc(C2=NN(c3ccc(F)cc3)C3C(=O)N(CCc4cccc(F)c4)C(=O)C23)c1O` (stereo not shown) [16b, 1-(4-Fluorophenyl)-5-[2-(3-fluorophenyl)ethyl]-3-(2-hydroxy-3-methoxyphenyl)-3a,6a-dihydro-1H-pyrrolo[3,4-c]pyrazole-4,6-dione], for which the “TI (in vitro therapeutic index, CC50 value/EC50 value)” value in the data set with HIV-1IIIB is listed as 11.01. Further, the EC50 in the data set on HIV-1IIIB (setting [1]) turned out to be 13 µM. In addition, the CC50 at 72 h in “Cytotoxicity assay (MTT)” was determined as 143 µM.
In the case of `O=C1C2C(c3ccccc3)=NN(c3ccc(F)cc3)C2C(=O)N1CCc1ccc(F)cc1` (stereo not shown) [7b, 1-(4-Fluorophenyl)-5-[2-(4-fluorophenyl)ethyl]-3-phenyl-3a,6a-dihydro-1H-pyrrolo[3,4-c]pyrazole-4,6-dione], the “TI (in vitro therapeutic index, CC50 value/EC50 value)” value in the data set on HIV-1IIIB is listed as 16.03. Moreover, the EC50 in the data set on HIV-1IIIB (setting [1]) came out at 9.21 µM. The CC50 at 72 h in the data set “Cytotoxicity assay (MTT)” came to 148 µM.
On to `O=C1C2C(c3cccc4c3OCO4)=NN(c3ccc(F)cc3)C2C(=O)N1CCc1ccc(F)cc1` (stereo not shown) [12b, 3-Benzo[1,3]dioxol-4-yl-1-(4-fluorophenyl)-5-[2-(4-fluorophenyl)ethyl]-3a,6a-dihydro-1H-pyrrolo[3,4-c]pyrazole-4,6-dione], for which, in the data set on HIV-1IIIB, the “TI (in vitro therapeutic index, CC50 value/EC50 value)” value came to 31.29. The EC50 in the data set on HIV-1IIIB (setting [1]) came to 7.11 µM. Also, the CC50 at 72 h in the data set “Cytotoxicity assay (MTT)” amounted to 222 µM.
With `Cc1cn([C@H]2C[C@H](N=[N+]=[N-])[C@@H](CO)O2)c(=O)[nH]c1=O` [AZT, reference compound], in the data set on HIV-1IIIB, the “TI (in vitro therapeutic index, CC50 value/EC50 value)” value is recorded as 444,588 and the EC50 worked out at 0.0085 µM. Besides, the CC50 in the data set on C8166 cells (C8166 cells, MTT, 72 h, means of two separate experiments, read-out: CC50 (50% cytotoxic concentration)) was determined as 3.78 mM.
Regarding `O=C1C2C(c3cccc(Cl)c3O)=NN(c3ccc(F)cc3)C2C(=O)N1CCc1ccc(F)cc1` (stereo not shown) [9d, 3-(3-Chloro-2-hydroxyphenyl)-1-(4-fluorophenyl)-5-[2-(4-fluorophenyl)ethyl]-3a,6a-dihydro-1H-pyrrolo[3,4-c]pyrazole-4,6-dione], the “TI (in vitro therapeutic index, CC50 value/EC50 value)” value with HIV-1IIIB is recorded as 16.23. The EC50 in the data set with HIV-1IIIB (setting [1]) stood at 20.4 µM. In addition, in “Cytotoxicity assay (MTT)”, the CC50 at 72 h came to 332 µM.
For the molecule `COc1cccc(C2=NN(c3ccc(F)cc3)C3C(=O)N(CCc4ccccc4F)C(=O)C23)c1O` (stereo not shown) [16a, 1-(4-Fluorophenyl)-5-[2-(2-fluorophenyl)ethyl]-3-(2-hydroxy-3-methoxyphenyl)-3a,6a-dihydro-1H-pyrrolo[3,4-c]pyrazole-4,6-dione], the “TI (in vitro therapeutic index, CC50 value/EC50 value)” value in the data set with HIV-1IIIB worked out at 7.78. For the same molecule, the EC50 with HIV-1IIIB (setting [1]) was determined as 2.52 µM. For the same molecule, the CC50 at 72 h in the data set “Cytotoxicity assay (MTT)” was determined as 19.6 µM.
As for `O=C1C2C(c3cccc([N+](=O)[O-])c3O)=NN(c3ccc(F)cc3)C2C(=O)N1CCc1ccc(F)cc1` (stereo not shown) [9e, 1-(4-Fluorophenyl)-5-[2-(4-fluorophenyl)ethyl]-3-(2-hydroxy-3-nitrophenyl)-3a,6a-dihydro-1H-pyrrolo[3,4-c]pyrazole-4,6-dione], the “TI (in vitro therapeutic index, CC50 value/EC50 value)” value in the data set on HIV-1IIIB is 6.56. For the same molecule, the EC50 with HIV-1IIIB (setting [1]) worked out at 7.55 µM. The CC50 at 72 h in the data set “Cytotoxicity assay (MTT)” worked out at 49.5 µM.
For `O=C1C2C(c3ccccn3)=NN(c3ccc(F)cc3)C2C(=O)N1CCc1ccc(F)cc1` (stereo not shown) [14b, 1-(4-Fluorophenyl)-5-[2-(4-fluorophenyl)ethyl]-3-pyridin-2-yl-3a,6a-dihydro-1H-pyrrolo[3,4-c]pyrazole-4,6-dione], in the data set with HIV-1IIIB, the “TI (in vitro therapeutic index, CC50 value/EC50 value)” value stood at 5.73. Further, the EC50 in the data set on HIV-1IIIB (setting [1]) was 26.2 µM. The CC50 at 72 h in the data set “Cytotoxicity assay (MTT)” was found to be 150 µM.
Regarding `O=C1C2C(c3cccc(F)c3O)=NN(c3ccc(F)cc3)C2C(=O)N1CCc1ccc(F)cc1` (stereo not shown) [9b, 1-(4-Fluorophenyl)-5-[2-(4-fluorophenyl)ethyl]-3-(3-fluoro-2-hydroxyphenyl)-3a,6a-dihydro-1H-pyrrolo[3,4-c]pyrazole-4,6-dione], the “TI (in vitro therapeutic index, CC50 value/EC50 value)” value in the data set on HIV-1IIIB came to 24.58. Moreover, the EC50 in the data set with HIV-1IIIB (setting [1]) was 5.74 µM. In “Cytotoxicity assay (MTT)”, the CC50 at 72 h came to 141 µM.
